This is an account of results in patent publication US20250179073A1, “TRICYCLIC HETEROCYCLE COMPOUNDS AS IAP ANTAGONISTS” (Ascentage Pharma (Suzhou) Co., Ltd., priority 2022, published 2025).

Experiment [1] deals with MDA-MB-231 cells. Description: Cell proliferation assay (CellTiter-Glo), MDA-MB-231. It is filed as cell-based. The settings on record: Homo sapiens, MDA-MB-231, 72 h, 72 h treatment, Celltiter-Glo luminescence. The procedure, abridged:
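MDA-MB-231 (RPMI-1640/10% FBS) and EVSA-T (MEM/10% FBS) cells, 10000 cells/well, exposed 72 h to compound at […]. Viability read by CellTiter-Glo luminescence after 15 min at room temperature. IC50 from control-normalised curve fitting.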
On the technique in general: ATP-based viability assays read luminescence as a measure of living cells.

Experiment [2] deals with EVSA-T cells. Briefly: Cell proliferation assay (CellTiter-Glo), EVSA-T. In kind it is cell-based. The conditions noted are these: Homo sapiens, EVSA-T, 72 h, 72 h treatment, Celltiter-Glo luminescence. As for the experimental part: Example 238: Cell Proliferation Assay
MDA-MB-231 and EVSA-T cells (10000 cells/well) were plated onto 96-well plates (Corning, Cat #3917) in 95 μL of medium (RPMI-1640 containing 10% FBS and MEM containing 10% FBS, respectively). Compounds with various concentrations ([…]) were added to the wells. After treatment for 72 h, 30 μL of Celltiter-Glo reagent (Promega, Cat #G7573) was added and incubated at room temperature for 15 min, then the luminescent signal was determined using a microplate reader (Biotek, SynergyH1). The inhibitor dose-response curves were analyzed using normalized IC50 regression curve fitting with control based normalization.

The structures appear in SMILES notation.

Take `C[C@@H]1CN(CC(=O)N2CC(C)(C)c3c2cc(Cc2ccc(F)cc2)c2cncn32)[C@@H](CN2CCOC[C@H]2C)CN1` [Compound 1, 1-(4-(4-fluorobenzyl)-8,8-dimethyl-7,8-dihydro-6H-imidazo[1,5-a]pyrrolo[2,3-e]pyridin-6-yl)-2-((2R,5R)-5-methyl-2-(((R)-3-methylmorpholino)methyl)piperazin-1-yl)ethan-1-one]: the IC50 was 0.077 µM in experiment [1] and 0.007 µM in experiment [2].

On to `Cc1ncc2c(Cc3ccc(F)cc3)cc3c(n12)C(C)(C)CN3C(=O)CN1C[C@@H](C)NC[C@@H]1CN1CCOC[C@H]1C` [Compound 2, 1-(4-(4-fluorobenzyl)-1,8,8-trimethyl-7,8-dihydro-6H-imidazo[1,5-a]pyrrolo[2,3-e]pyridin-6-yl)-2-((2R,5R)-5-methyl-2-(((R)-3-methylmorpholino)methyl)piperazin-1-yl)ethan-1-one], for which the IC50 in experiment [1] worked out at 0.11 µM; in experiment [2], 0.013 µM.

For the compound `C[C@@H]1CN(CC(=O)N2CC(C)(C)c3c2cc(Cc2ccc(F)cc2)c2nc(C#N)nn32)[C@@H](CN2CCOC[C@H]2C)CN1` [Compound 32, 4-(4-fluorobenzyl)-8,8-dimethyl-6-(2-((2R,5R)-5-methyl-2-(((R)-3-methylmorpholino)methyl)piperazin-1-yl)acetyl)-7,8-dihydro-6H-pyrrolo[2,3-e][1,2,4]triazolo[1,5-a]pyridine-2-carbonitrile], the IC50 in experiment [1] came out at 0.06 µM; in experiment [2], 0.02 µM.

With `Cc1nc2c(Cc3ccc(F)cc3)cc3c(n2n1)C(C)(C)CN3C(=O)CN1C[C@@H](C)NC[C@@H]1CN1CCOC[C@H]1C` [Compound 36, 1-(4-(4-fluorobenzyl)-2,8,8-trimethyl-7,8-dihydro-6H-pyrrolo[2,3-e][1,2,4]triazolo[1,5-a]pyridin-6-yl)-2-((2R,5R)-5-methyl-2-(((R)-3-methylmorpholino)methyl)piperazin-1-yl)ethan-1-one], the IC50 in experiment [1] came to 0.036 µM; in experiment [2] it was 0.002 µM.

Regarding `C[C@@H]1CN(CC(=O)N2CC(C)(C)c3c2cc(Cc2ccc(F)cc2)c2nc(CO)nn32)[C@@H](CN2CCOC[C@H]2C)CN1` [Compound 37, 1-(4-(4-fluorobenzyl)-2-(hydroxymethyl)-8,8-dimethyl-7,8-dihydro-6H-pyrrolo[2,3-e][1,2,4]triazolo[1,5-a]pyridin-6-yl)-2-((2R,5R)-5-methyl-2-(((R)-3-methylmorpholino)methyl)piperazin-1-yl)ethan-1-one], the IC50 is 0.071 µM in experiment [1] and 0.004 µM in experiment [2].

As to `C[C@@H]1CN(CC(=O)N2CC(C)(C)c3c2cc(Cc2ccccc2F)c2ncnn32)[C@@H](CN2CCOC[C@H]2C)CN1` [Compound 38, 1-(4-(2-fluorobenzyl)-8,8-dimethyl-7,8-dihydro-6H-pyrrolo[2,3-e][1,2,4]triazolo[1,5-a]pyridin-6-yl)-2-((2R,5R)-5-methyl-2-(((R)-3-methylmorpholino)methyl)piperazin-1-yl)ethan-1-one], the IC50 in experiment [1] worked out at 0.15 µM; in experiment [2], 0.006 µM.

Turning to `C[C@@H]1CN(CC(=O)N2CC(C)(C)c3c2cc(Cc2cccc(F)c2)c2ncnn32)[C@@H](CN2CCOC[C@H]2C)CN1` [Compound 39, 1-(4-(3-fluorobenzyl)-8,8-dimethyl-7,8-dihydro-6H-pyrrolo[2,3-e][1,2,4]triazolo[1,5-a]pyridin-6-yl)-2-((2R,5R)-5-methyl-2-(((R)-3-methylmorpholino)methyl)piperazin-1-yl)ethan-1-one], the IC50 in experiment [1] amounted to 0.15 µM; in experiment [2], 0.034 µM.

Regarding `C[C@@H]1CN(CC(=O)N2CC(C)(C)c3c2cc(Cc2ccc(F)cc2F)c2ncnn32)[C@@H](CN2CCOC[C@H]2C)CN1` [Compound 40, 1-(4-(2,4-difluorobenzyl)-8,8-dimethyl-7,8-dihydro-6H-pyrrolo[2,3-e][1,2,4]triazolo[1,5-a]pyridin-6-yl)-2-((2R,5R)-5-methyl-2-(((R)-3-methylmorpholino)methyl)piperazin-1-yl)ethan-1-one], the IC50 was found to be 0.059 µM in experiment [1] and 0.003 µM in experiment [2].

Take `COc1cc(F)ccc1Cc1cc2c(n3ncnc13)C(C)(C)CN2C(=O)CN1C[C@@H](C)NC[C@@H]1CN1CCOC[C@H]1C` [Compound 41, 1-(4-(4-fluoro-2-methoxybenzyl)-8,8-dimethyl-7,8-dihydro-6H-pyrrolo[2,3-e][1,2,4]triazolo[1,5-a]pyridin-6-yl)-2-((2R,5R)-5-methyl-2-(((R)-3-methylmorpholino)methyl)piperazin-1-yl)ethan-1-one]: the IC50 was determined as 0.078 µM in experiment [1] and 0.014 µM in experiment [2].

Consider `C[C@@H]1CN(CC(=O)N2CC(C)(C)c3c2cc(Cc2ccc(F)cc2O)c2ncnn32)[C@@H](CN2CCOC[C@H]2C)CN1` [Compound 42, 1-(4-(4-fluoro-2-hydroxybenzyl)-8,8-dimethyl-7,8-dihydro-6H-pyrrolo[2,3-e][1,2,4]triazolo[1,5-a]pyridin-6-yl)-2-((2R,5R)-5-methyl-2-(((R)-3-methylmorpholino)methyl)piperazin-1-yl)ethan-1-one], for which the IC50 in experiment [1] is 0.1 µM; in experiment [2], 0.013 µM.

`C[C@@H]1CN(CC(=O)N2CC(C)(C)c3c2cc(Cc2ccc(Cl)cc2)c2ncnn32)[C@@H](CN2CCOC[C@H]2C)CN1` [Compound 44, 1-(4-(4-chlorobenzyl)-8,8-dimethyl-7,8-dihydro-6H-pyrrolo[2,3-e][1,2,4]triazolo[1,5-a]pyridin-6-yl)-2-((2R,5R)-5-methyl-2-(((R)-3-methylmorpholino)methyl)piperazin-1-yl)ethan-1-one]: the IC50 in experiment [1] came out at 0.075 µM; in experiment [2], 0.009 µM.

`CC(c1ccc(F)cc1)c1cc2c(n3ncnc13)C(C)(C)CN2C(=O)CN1C[C@@H](C)NC[C@@H]1CN1CCOC[C@H]1C` (stereo partly drawn) [Compound 45, 1-(4-(1-(4-fluorophenyl)ethyl)-8,8-dimethyl-7,8-dihydro-6H-pyrrolo[2,3-e][1,2,4]triazolo[1,5-a]pyridin-6-yl)-2-((2R,5R)-5-methyl-2-(((R)-3-methylmorpholino)methyl)piperazin-1-yl)ethan-1-one]: the IC50 in experiment [1] was determined as 0.18 µM; in experiment [2], 0.04 µM.

With `C[C@@H]1CN(CC(=O)N2CC(C)(C)c3c2cc(Sc2ccc(F)cc2)c2ncnn32)[C@@H](CN2CCOC[C@H]2C)CN1` [Compound 49, 1-(4-((4-fluorophenyl)thio)-8,8-dimethyl-7,8-dihydro-6H-pyrrolo[2,3-e][1,2,4]triazolo[1,5-a]pyridin-6-yl)-2-((2R,5R)-5-methyl-2-(((R)-3-methylmorpholino)methyl)piperazin-1-yl)ethan-1-one], the IC50 was 0.03 µM in experiment [1] and 0.005 µM in experiment [2].

Turning to `C[C@@H]1CN(CC(=O)N2CC(C)(C)c3c2cc(C(F)(F)CC2CC2)c2ncnn32)[C@@H](CN2CCOC[C@H]2C)CN1` [Compound 53, 1-(4-(2-cyclopropyl-1,1-difluoroethyl)-8,8-dimethyl-7,8-dihydro-6H-pyrrolo[2,3-e][1,2,4]triazolo[1,5-a]pyridin-6-yl)-2-((2R,5R)-5-methyl-2-(((R)-3-methylmorpholino)methyl)piperazin-1-yl)ethan-1-one], the IC50 was 0.13 µM in experiment [1] and 0.06 µM in experiment [2].

For the compound `C[C@@H]1CN(CC(=O)N2CC3(CC3)c3c2cc(Cc2ccc(F)cc2)c2ncnn32)[C@@H](CN2CCOC[C@H]2C)CN1` [Compound 56, 1-(4′-(4-fluorobenzyl)spiro[cyclopropane-1,8′-pyrrolo[2,3-e][1,2,4]triazolo [1,5-a]pyridin]-6′(7′H)-yl)-2-((2R,5R)-5-methyl-2-(((R)-3-methylmorpholino)methyl)piperazin-1-yl)ethan-1-one], the IC50 is 0.035 µM in experiment [1] and 0.009 µM in experiment [2].

For the compound `C[C@@H]1CN(CC(=O)N2CC(C)(C)c3c2cc(Cc2ccc(F)cc2)c2ncnn32)[C@@H](CN2CCN(CC(F)(F)F)C[C@H]2C)CN1` [Compound 63, 1-(4-(4-fluorobenzyl)-8,8-dimethyl-7,8-dihydro-6H-pyrrolo[2,3-e][1,2,4]triazolo[1,5-a]pyridin-6-yl)-2-((2R,5R)-5-methyl-2-(((R)-2-methyl-4-(2,2,2-trifluoroethyl)piperazin-1-yl)methyl)piperazin-1-yl)ethan-1-one], the IC50 was found to be 0.028 µM in experiment [1] and 0.003 µM in experiment [2].

On to `C[C@@H]1CN(CC(=O)N2CC(C)(C)c3c2cc(Cc2ccc(F)cc2)c2ncnn32)[C@@H](CN2CCC(C)(O)C[C@H]2C)CN1` (stereo partly drawn) [Compound 77, 1-(4-(4-fluorobenzyl)-8,8-dimethyl-7,8-dihydro-6H-pyrrolo[2,3-e][1,2,4]triazolo[1,5-a]pyridin-6-yl)-2-((2R,5R)-2-(((2R)-4-hydroxy-2,4-dimethylpiperidin-1-yl)methyl)-5-methylpiperazin-1-yl)ethan-1-one], for which the IC50 was 0.07 µM in experiment [1] and 0.005 µM in experiment [2].

Take `C[C@@H]1CN(CC(=O)N2CC(C)(C)c3c2cc(Cc2ccc(F)cc2)c2ncnn32)[C@@H](CN2Cc3ccccc3C2=O)CN1` [Compound 94, 2-(((2R,5R)-1-(2-(4-(4-fluorobenzyl)-8,8-dimethyl-7,8-dihydro-6H-pyrrolo[2,3-e][1,2,4]triazolo[1,5-a]pyridin-6-yl)-2-oxoethyl)-5-methylpiperazin-2-yl)methyl)isoindolin-1-one]: the values for the IC50 in experiment [1] and in experiment [2] were 0.026 µM and 0.004 µM, respectively.

Broadly, the IC50 is the concentration at which inhibition is half-maximal.
